In article PMC5118774 (Frontiers in Pharmacology, 2016):
Entries after “also recorded” stand apart in the source; their conditions may differ.

Assays:
Format in all cases: in vivo, C57BL/6J mice
[1] = tested on: mice exposed to unpredictable chronic mild stress (UCMS); assay: Open field test after UCMS
[2] = tested on: mice exposed to unpredictable chronic mild stress (UCMS); assay: Composite emotionality Z-score across EPM, OFT, NSF, cookie test
Experimental: To assess the consistency of effects of stress and drug treatment on overall stress-induced behavior, we calculated behavioral z-scores using the formula below. These normalized scores integrate measures of behavioral dimensions (e.g., emotionality) over time and tests, yielding a combined measure of the UCMS-induced behavioral syndrome ([Guilloux et al., 2011]).
Briefly, for each behavioral measure a Z-score was calculated for an individual animal indicating how many standard deviations (σ) a given observation (X) is from the mean of the control group (μ). These scores were averaged within test such that each test had the same weight, and then averaged across all four tests (EPM, OFT, NSF, cookie test) to obtain a composite emotionality Z-score for each mouse. In short, random or opposite behavior across tests yield null z-scores, whereas significant and/or trend-like behaviors across tests and consistently in the same directions yield high z-scores.

[3] = tested on: Gabra5; assay: Gabra5 transcript expression by qPCR in prelimbic cortex and hippocampus
Experimental: Twenty-four hours after the final behavioral test, mice were injected with either an acute dose of α5-PAM or vehicle 30 min prior to rapid perfusion (2 ml 4%PFA). Brains were rapidly dissected and flash frozen on dry ice. 160 μm thick coronal sections were obtained using a cryostat. The prelimbic cortex and dorsal hippocampus were dissected with a 1 mm diameter micropunch and tissue samples were then frozen at -80°C. Total RNA was extracted with an RNAeasy FFPE kit (Qiagen, Germantown, MD, USA) and tested for purity on a NanoDrop Spectrophotometer (260/280 ≥ 1.9). RNA concentration and integrity (RIN > 7) were then assessed using the Agilent RNA6000 Pico-Kit and Agilent 2100 Bioanalyzer (Agilent Technologies, Santa Clara, CA, USA).
Approximately 90 ng of total RNA was used to generate cDNA via the qScript^TM cDNA Supermix synthesis kit (Quanta Biosciences, Gaithersburg, MD, USA). Real-time quantitative polymerase chain (qPCR) reactions were carried out using SYBR green fluorescence signal (Invitrogen, Carlsbad, CA, USA) and an Opticon Monitor DNA Engine (Bio-Rad, Berkeley, CA, USA). Gene of interest was the α5-subunit of the GABAA receptor (Gabra5). Samples were run in triplicate and ΔCt values were calculated by comparing the Ct values of Gabra5 to the geometric mean of two reference genes, β-Actin and glyceraldehyde 3-phosphate dehydrogenase (Gapdh). Arbitrary signal intensity was calculated as 2^-ΔCt∗10,000.

[4] = tested on: α5 protein; assay: Total and surface α5 protein, surface biotinylation and Western blotting; conditions: acute or chronic treatment
Experimental: Dissected hippocampi were processed as described in [Pabba et al. (2014)] with minor modifications.
The following antibodies and their dilutions were used in this study: rabbit polyclonal anti-α5 (1:750; Thermo Fisher Scientific, Waltham, MA, USA), rabbit monoclonal anti-β1-[…] (NK-ATPase) (1:1000; Abcam, Cambridge, MA, USA), and mouse monoclonal anti-β-actin (1:100; Abcam, Cambridge, MA, USA).
Western blotting was performed using 5 μg of protein resolved on 8% SDS-PAGE and transferred onto PVDF membranes and developed using IR-Dye conjugated secondary antibody and detection using LI-COR (NE, USA). Quantification of bands was performed using Image Studio^TM Software (LI-COR, NE, USA). We analyzed α5 surface biotinylation in vehicle versus drug treated mice (N = 6 females and 4 males per group). Total α5 band intensities were normalized to β-actin, whereas surface α5 band intensities were normalized to NK-ATPase.

[5] = female UCMS mice, chronic treatment, vs UCMS-vehicle, second cohort (Figure 3)

Q: `C#Cc1ccc2c(c1)C(c1ccccc1F)=N[C@H](C)c1c(C(=O)OCC)ncn1-2` [α5-PAM] was tested. Which “OFT percentage of total distance traveled in the center” value [1, 5] did it give?
A: Its value is “increases; also recorded: higher percentage of their total distance traveled”.

Q: What about the OFT behavior ([1]; female and male UCMS mice, acute or chronic 30 mg/kg i.p., first cohort (Figure 2)) of the same compound?
A: Its OFT behavior is “did not detect any significant main effects; also recorded: No effect”.

Q: And the “OFT, stress-induced behavior” value ([1]; male UCMS mice, 37.5 mg/kg acute or chronic (Figure 4B), 37.5 mg/kg)?
A: Its value is “No change; also recorded: failed to reduce”.

Q: And the “OFT, UCMS-induced behavioral phenotype” value ([1]; male mice, UCMS plus single housing, chronic treatment (Figure 4A))?
A: Its value is “did not alter; also recorded: No significant effect”.

Q: And the Z-emotionality score ([2]; female UCMS mice, acute 30 mg/kg i.p., first cohort (Figure 2))?
A: The Z-emotionality score was “Significant anti-stress effect”.

Q: And the “Z-emotionality score compared to non-stressed vehicle group” value ([2]; female UCMS mice, acute and chronic treatment groups, second cohort (Figure 3))?
A: Its value is “not statistically different”.

Q: And the Z-emotionality score ([2]; female UCMS mice, acute treatment, vs UCMS-vehicle, second cohort (Figure 3))?
A: Its Z-emotionality score is “normalized; also recorded: significantly decreased”.

Q: What about the Z-emotionality score ([2]; female UCMS mice, chronic 30 mg/kg i.p., first cohort (Figure 2)) of the same compound?
A: The Z-emotionality score was “Significant anti-stress effect”.

Q: What about the Z-emotionality score [2, 5] of the same compound?
A: Its Z-emotionality score is “normalized; also recorded: significantly decreased”.

Q: And the “Composite emotionality Z-score” value ([2]; male UCMS mice, 37.5 mg/kg acute or chronic (Figure 4D), 37.5 mg/kg)?
A: Its value is “No effect; also recorded: lack of anti-stress activity”.

Q: What about the Z-emotionality score ([2]; male UCMS mice, acute or chronic 30 mg/kg i.p., first cohort (Figure 2)) of the same compound?
A: Its Z-emotionality score is “no effect”.

Q: And the “Summary emotionality Z-score” value ([2]; male mice, UCMS plus single housing, chronic treatment (Figure 4C))?
A: Its value is “lack of effect; also recorded: does not remediate”.

Q: And the “Gabra5 (α5) transcript expression, prelimbic cortex” value ([3]; female UCMS mice, acute treatment)?
A: The value was “significantly increased; also recorded: increases”.

Q: And the “Gabra5 (α5-subunit) transcript expression, hippocampus” value ([3]; female UCMS mice, chronic treatment)?
A: Its value is “increases”.

Q: And the Gabra5 gene expression ([3]; male UCMS mice, acute or chronic treatment, prelimbic cortex and hippocampus)?
A: Its Gabra5 gene expression is “No change”.

Q: What about the “Gabra5 (α5) transcript expression, prelimbic cortex” value ([3]; male or female UCMS mice, chronic treatment) of the same compound?
A: Its value is “No effect”.

Q: What about the “total or surface α5 protein expression, hippocampus” value ([4]; female UCMS mice) of the same compound?
A: Its value is “no difference; also recorded: No significant effect”.

Q: And the “total or surface α5 protein expression, hippocampus” value ([4]; male UCMS mice)?
A: Its value is “no difference; also recorded: No significant effect”.
